Experimental findings from ChEMBL document CHEMBL5728757, “Cyano substituted heteroarylpyrimidinone derivative, preparation method and use thereof” (2021) are described below.

The target of this test is Acetyl-CoA carboxylase 1 (Homo sapiens, UniProt Q13085). The test can be described thus: etermination of IC50 of Inhibition of Enzymatic Activity of ACC1 and ACC2 by the Compound of the Present Disclosure: The degree of inhibition of the enzymatic activity of recombinant human ACC1, ACC2 proteins under in-vitro conditions by the preferred compounds of the present disclosure is determined by the following method.The principle of the method was based on the reaction of ACC protein-catalyzed acetyl-CoA to form malonyl-CoA. ATP was consumed during this reaction and ADP was produced. The produced ADP was reconverted into ATP by using ADP-Glo™ Kinase Kit from Promega. This part of ATP reacted with the luciferase-fluorescence in the kit, and generated chemiluminescent signals. Thus, by measuring the intensity of chemiluminescent signal, the amount of ADP produced in the catalytic reaction was reflected, thereby indirectly determining the enzymatic activity of ACC protein and the effect of the tested compound on the enzymatic activity. […]. A general note: In ADP-Glo the light output rises with the ADP produced.

Each structure is given as a SMILES string.

Consider `CCOc1ccc(F)cc1[C@H](Cn1c(=O)n(C(C)(C)C(N)=O)c(=O)c2c(C)c(C#N)sc21)OC1CCOCC1`, for which the concentration for half-maximal inhibition (IC50) worked out at 13.1 nM.

The term IC50 denotes the concentration that inhibits the measured activity by half.
